Measurements from patent publication US12173088B2, “Anti-microbial peptides” (priority 2018, dated 2024).
≈ marks a conversion by molar mass, not a printed value. Square brackets hold non-standard residues; d marks the D form. Peptide text beside a SMILES is read from it. Orn = NCCC[C@H](N)C(=O)O

How the values were obtained:
S. aureus USA300 = test: microbe, parasite or virus in culture; format: cell-based, Staphylococcus aureus; conditions: USA300
Text: The bacterial strains used include the Gram-positive strains Staphylococcus aureus USA300 LAC, S. epidermidis 1457, and Bacillus subtilis 168, as well as the Gram-negative isolates Escherichia coli K12 and Acinetobacter baumannii B2367-12. Additional, drug resistance strains include Gram-positive Enterococcus faecium V286-17 (VRE) and S. aureus M838-17 (MRSA) and Gram-negative E. coli E423-17, E. coli E416-17 (ampC), and P. aeruginosa E411-17. Bacteria were cultivated in tryptic soy broth (TSB) (BD Bioscience, MD).
(§1) The antibacterial activity of peptides was evaluated using a standard broth microdilution protocol with minor modifications as described (Mishra, et al. (2012) J. Am. Chem. Soc., 134:12426-12429). In brief, logarithmic phase bacterial cultures (i.e., optical density at 600 nm≈0.5) were diluted to OD600 0.001 and partitioned into a 96-well polystyrene microplate at 90 μL per well. After treatment with 10 μL of peptide solutions two fold diluted to various concentrations, microplates were incubated at 37° C. overnight and read on a ChroMate® 4300 Microplate Reader at 630 nm (GMI, Ramsey, MN). […] To study the influence of medium conditions on the antimicrobial activity of peptides against S. aureus USA300, up to 200 mM sodium chloride (NaCl), 2 mM of calcium chloride, 5-10% of human serum, mouse plasma, fluid, or supernatants of tissue homogenates were included into the assays.
(§2) The bacterial strains used include the Gram-positive bacteria methicillin-resistant Staphylococcus aureus USA300, Enterococcus faecium V286-17 (VRE), S. aureus M838-17 (MRSA) and Gram-negative bacteria E. coli E423-17, E416-7 (ampC), P. aeruginosa E411-17, PA01, K. pneumoniae E406-17, ATCC13883, and A. baumannii B26-16. Bacteria were cultivated in tryptic soy broth (TSB) from BD Bioscience.
(§3) The antibacterial activity of peptides was evaluated using a standard broth microdilution protocol with minor modifications (Mishra, et al. (2017) Acta Biomater., 49:316-328). In brief, logarithmic phase bacterial cultures (i.e., optical density at 600 nm≈0.5) were diluted to 0.001 OD and aliquoted 90 μL per well into a 96-well polystyrene microplate. Added 10 μL peptides per well with various concentrations, plates were incubated at 37° C., overnight. Post incubation the plates are read at 630 nm using a ChroMate® Microplate Reader (GMI). […] To study the influence of medium conditions on the antimicrobial activity of peptides against S. aureus USA300 at different pHs (6.8, 7.2, and 8.0), 150 mM sodium chloride (NaCl), 5-10% of human serum, mouse plasma, and peritoneal fluid were included into the assays.

P. aeruginosa PAO1 = format: cell-based, Pseudomonas aeruginosa; conditions: PAO1
Method: as §1, §2, §3

E. coli ATCC 25922 = format: cell-based, Escherichia coli; conditions: ATCC 25922
Method: as §1, §3

K. pneumoniae ATCC 13883 = format: cell-based, Klebsiella pneumoniae; conditions: ATCC 13883
Method: as §1, §2, §3

[1] = tested on: human red blood cells (hRBCs); test: Hemolytic assay; format: cell-based
Method: Briefly, human red blood cells (hRBCs) were washed three times with phosphate buffer saline (PBS) and diluted to a 2% solution (v/v). After peptide treatment, incubation at 37° C. for one hour, and centrifugation at 5000 rpm for 10 minutes, aliquots of the supernatant were carefully transferred to a fresh 96-well microplate. The amount of hemoglobin released was measured at 545 nm. The percent lysis was calculated by assuming 100% release when human blood cells were treated with 2% Triton™ X-100, and 0% release when incubated with PBS buffer. The peptide concentration that caused 50% lysis of hRBCs is defined as HL50. The cell selectivity index (CSI) was calculated as the ratio between HL50 and MIC of the corresponding peptide against a select pathogenic species.
Hemolytic assays of peptides were performed as described (Mishra, et al. (2017) Acta Biomater., 49:316-328). Briefly, human red blood cells (hRBCs) obtained from UNMC Blood Bank. The blood washed 3× with isotonic saline (0.9% NaCl) and diluted to 2% blood cells (v/v). Peptide horine and verine at various concentrations were added into the 2% blood cells and incubated at 37° C. for 1 hour. Post incubation the plates were spun at 2000 rpm for 10 minutes, aliquots of the supernatant were carefully transferred to a fresh 96-well microplate. The amount of cells lysed is proportional to the hemoglobin released and measured at 545 nm using a ChroMate® microplate reader. The percent lysis was calculated by assuming 100% release when human blood cells were treated with 1% Triton™ X-100, and 0% release when incubated with PBS. The peptide concentration that caused 50% lysis of hRBCs is defined as HL50.

SMILES | MIC S. aureus USA 300 (S. aureus USA300) [µM] | MIC P. aeruginosa PAO1 (P. aeruginosa PAO1) [µM] | MIC E. coli ATCC 25922 (E. coli ATCC 25922) [µM] | MIC K. pneumoniae (K. pneumoniae ATCC 13883) [µM] | HL50 [1] [µM] | MIC K. pneumonia ATCC 13883 (K. pneumoniae ATCC 13883) [µM] | MIC against S. aureus (S. aureus USA300) [µM]
CC(C)C[C@H](NC(=O)[C@H](CC(C)C)NC(=O)[C@H](CCCCN)NC(=O)CNC(=O)[C@H](CC(C)C)NC(=O)[C@H](C)NC(=O)[C@H](CCCN)NC(=O)[C@H](CC(C)C)NC(=O)[C@H](C)NC(=O)[C@H](CO)NC(=O)[C@H](CC(C)C)NC(=O)[C@H](CC(C)C)NC(=O)CN)C(N)=O [DFT515, GLLSALOALGKLL] (H-GLLSAL[Orn]ALGKLL-NH2; N-terminus assumed) | 1.56 (≈ 2 µg/mL) | >25 | 3.1 (≈ 3.97 µg/mL) | 3.1 (≈ 3.97 µg/mL) | 36 | – | –
CC(C)C[C@H](NC(=O)[C@H](CC(C)C)NC(=O)[C@H](CCCN)NC(=O)CNC(=O)[C@H](CC(C)C)NC(=O)[C@H](C)NC(=O)[C@H](CCCN)NC(=O)[C@H](CC(C)C)NC(=O)[C@H](C)NC(=O)[C@H](CO)NC(=O)[C@H](CC(C)C)NC(=O)[C@H](CC(C)C)NC(=O)CN)C(N)=O [DFT516, GLLSALOALGOLL] (H-GLLSAL[Orn]ALG[Orn]LL-NH2; N-terminus assumed) | 1.56 (≈ 1.98 µg/mL) | >25 | 3.1 to 6.25 | 3.1 (≈ 3.93 µg/mL) | 36 | – | –
CC(C)C[C@H](NC(=O)[C@H](CC(C)C)NC(=O)[C@H](CCCCN)NC(=O)CNC(=O)[C@H](CC(C)C)NC(=O)[C@H](CO)NC(=O)[C@H](CC(C)C)NC(=O)[C@H](CO)NC(=O)[C@H](CC(C)C)NC(=O)[C@H](CC(C)C)NC(=O)CN)C(N)=O [DFT524, GLLSL-SL-GKLL] (H-GLLSLSLGKLL-NH2; N-terminus and C-terminus assumed) | >25 | >25 | >25 | – | >300 | >25 | –
CC(C)C[C@H](NC(=O)[C@H](CC(C)C)NC(=O)[C@H](CCCCN)NC(=O)CNC(=O)[C@H](CC(C)C)NC(=O)[C@H](CO)NC(=O)[C@H](CO)NC(=O)[C@H](CC(C)C)NC(=O)[C@H](CC(C)C)NC(=O)CN)C(N)=O [DFT525, GLLS--SL-GKLL] (H-GLLSSLGKLL-NH2; N-terminus and C-terminus assumed) | >25 | >25 | >25 | – | >300 | >25 | –
CC(C)C[C@H](NC(=O)[C@H](CC(C)C)NC(=O)[C@H](CCCCN)NC(=O)CNC(=O)[C@H](CC(C)C)NC(=O)[C@H](CO)NC(=O)[C@H](CO)NC(=O)[C@H](CC(C)C)NC(=O)CN)C(N)=O [DFT526, GL-S--SL-GKLL] (H-GLSSLGKLL-NH2; N-terminus and C-terminus assumed) | >25 | >25 | >25 | – | >300 | >25 | –
CC(C)C[C@H](NC(=O)[C@H](CC(C)C)NC(=O)[C@H](CCCCN)NC(=O)CNC(=O)[C@H](CC(C)C)NC(=O)[C@H](C)NC(=O)[C@H](CCCCN)NC(=O)[C@H](CC(C)C)NC(=O)[C@H](C)NC(=O)[C@H](CO)NC(=O)[C@H](CC(C)C)NC(=O)[C@H](C)NC(=O)CN)C(N)=O [DFT528, GALSALKALGKLL] (H-GALSALKALGKLL-NH2; N-terminus assumed) | 25 (≈ 31.3 µg/mL) | >25 | 25 (≈ 31.3 µg/mL) | >25 | >50 | – | 12.5 to 25
CC(C)C[C@H](NC(=O)[C@H](C)NC(=O)[C@H](CCCCN)NC(=O)CNC(=O)[C@H](CC(C)C)NC(=O)[C@H](C)NC(=O)[C@H](CCCCN)NC(=O)[C@H](CC(C)C)NC(=O)[C@H](C)NC(=O)[C@H](CO)NC(=O)[C@H](CC(C)C)NC(=O)[C@H](CC(C)C)NC(=O)CN)C(N)=O [DFT529, GLLSALKALGKAL] (H-GLLSALKALGKAL-NH2; N-terminus assumed) | 75 (≈ 94 µg/mL) | >25 | 25 (≈ 31.3 µg/mL) | >25 | >50 | – | 12.5 to 25
